Experiment [1] has as its target AuroraB (h) (Homo sapiens, UniProt Q96GD4). Nature of the experiment: Aurora-B human kinase inhibition, SPA. The class given is biochemical. Particulars: read-out: AuroraB pIC50 (converted). In short, it runs like this:
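SPA with biotinylated peptide (3 μM) in 60 mM Hepes pH 7.5, Mg/Mn 3 mM each, 0.5 μM ATP plus [γ-33P]ATP, AuroraB at 0.5 μg/ml. The reaction runs 60 min at room temperature and is stopped with EDTA and streptavidin PVT beads. 33P-substrate is read by scintillation imaging.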

Experiment [2] concerns the target PLK2 (h) (Homo sapiens, UniProt Q9NYY3). Nature of the experiment: PLK2 human kinase inhibition, SPA. The class given is biochemical. The following applies: read-out: PLK2 pIC50 (converted). In short, it runs like this:
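SPA read on Leadseeker: PLK2 (30 μg/ml) with 2 μM biotinylated peptide, 0.1 μM ATP plus 2 nM [γ-33P]ATP in 50 mM Hepes pH 8.0, 2 mM MnCl2, 1 mM DTT. Reaction ran 20 min at room temperature, then EDTA stop and streptavidin PVT beads.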

The target of experiment [3] is PLK3 (h) (Homo sapiens, UniProt Q9H4B4). As to the kind of experiment: PLK3 human kinase inhibition, SPA. The class given is biochemical. Particulars: read-out: PLK3 pIC50 (converted). The procedure, abridged:
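SPA: PLK3 (h) at 30 μg/ml with 2 μM biotinylated peptide, 0.1 μM ATP plus 2 nM [γ-33P]ATP in 50 mM Hepes pH 8.0, 2 mM MnCl2 and 1 mM DTT. Incubated 20 min at room temperature, then stopped with EDTA and streptavidin PVT beads. Scintillation imaged on Leadseeker.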

Experiment [4] deals with U87-MG. As to the kind of experiment: Cellular proliferation assay (Alamar blue), U87-MG. The class given is cell-based. The following applies: Homo sapiens, U-87 MG; 10% FCS; 72 hours with compound; Alamar blue 6 h; read-out: U87-MG (cellular proliferation assay, Table 4) (converted). The procedure, abridged: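 Cells were seeded in medium with 10% FCS at 37° C, 5% CO2, left 24 h without compound, then exposed to compounds for 72 h. Viability was read with Alamar blue (resazurin 9 μg/ml, K-ferrocyanide and K-ferricyanide 90 μM each), 6 h for U87-MG, 4 h for HCT-116, 24 h for A2780 and MDA-MB-231.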

The text below walks through data of patent US8609836B2, “4-aryl-2-anilino-pyrimidines” (Janssen Pharmaceutica NV, priority 2008, dated 2013).

Chain of PLK3 (h) (Q9H4B4 whole entry): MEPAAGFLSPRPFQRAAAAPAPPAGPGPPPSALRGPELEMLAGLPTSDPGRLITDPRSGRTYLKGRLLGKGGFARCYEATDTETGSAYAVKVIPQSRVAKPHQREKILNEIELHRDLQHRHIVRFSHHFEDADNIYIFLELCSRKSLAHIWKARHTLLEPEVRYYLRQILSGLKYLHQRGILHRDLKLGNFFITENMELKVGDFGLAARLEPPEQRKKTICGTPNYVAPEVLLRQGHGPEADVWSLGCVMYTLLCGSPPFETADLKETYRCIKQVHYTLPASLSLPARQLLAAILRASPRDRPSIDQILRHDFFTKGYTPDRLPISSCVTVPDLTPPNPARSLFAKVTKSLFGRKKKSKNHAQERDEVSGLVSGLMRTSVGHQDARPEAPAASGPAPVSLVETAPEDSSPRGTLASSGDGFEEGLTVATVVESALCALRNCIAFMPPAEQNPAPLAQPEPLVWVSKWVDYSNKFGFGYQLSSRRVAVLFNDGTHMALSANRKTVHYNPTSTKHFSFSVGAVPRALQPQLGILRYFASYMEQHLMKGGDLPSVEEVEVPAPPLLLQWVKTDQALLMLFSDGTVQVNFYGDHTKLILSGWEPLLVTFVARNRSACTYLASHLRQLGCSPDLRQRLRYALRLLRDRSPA
Chain of PLK2 (h) (Q9NYY3 whole entry): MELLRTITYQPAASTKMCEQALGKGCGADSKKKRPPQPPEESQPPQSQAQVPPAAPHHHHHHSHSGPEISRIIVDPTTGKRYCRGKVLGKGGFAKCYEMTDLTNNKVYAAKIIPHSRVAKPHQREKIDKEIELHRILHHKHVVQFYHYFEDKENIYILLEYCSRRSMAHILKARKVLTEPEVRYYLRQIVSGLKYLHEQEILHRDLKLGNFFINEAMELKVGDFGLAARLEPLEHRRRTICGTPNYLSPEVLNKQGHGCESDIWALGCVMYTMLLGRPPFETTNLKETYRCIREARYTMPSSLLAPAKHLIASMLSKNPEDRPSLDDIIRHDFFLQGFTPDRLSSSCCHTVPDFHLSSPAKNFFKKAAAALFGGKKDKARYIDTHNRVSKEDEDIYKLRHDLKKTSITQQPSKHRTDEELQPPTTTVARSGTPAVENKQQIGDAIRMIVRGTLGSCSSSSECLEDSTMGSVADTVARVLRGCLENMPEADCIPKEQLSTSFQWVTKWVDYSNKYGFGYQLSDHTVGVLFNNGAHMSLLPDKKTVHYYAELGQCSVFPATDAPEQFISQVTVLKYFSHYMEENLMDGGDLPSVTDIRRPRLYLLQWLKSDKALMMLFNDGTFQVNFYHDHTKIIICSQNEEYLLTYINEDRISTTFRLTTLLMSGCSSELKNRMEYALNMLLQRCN
Chain of AuroraB (h) (Q96GD4 whole entry): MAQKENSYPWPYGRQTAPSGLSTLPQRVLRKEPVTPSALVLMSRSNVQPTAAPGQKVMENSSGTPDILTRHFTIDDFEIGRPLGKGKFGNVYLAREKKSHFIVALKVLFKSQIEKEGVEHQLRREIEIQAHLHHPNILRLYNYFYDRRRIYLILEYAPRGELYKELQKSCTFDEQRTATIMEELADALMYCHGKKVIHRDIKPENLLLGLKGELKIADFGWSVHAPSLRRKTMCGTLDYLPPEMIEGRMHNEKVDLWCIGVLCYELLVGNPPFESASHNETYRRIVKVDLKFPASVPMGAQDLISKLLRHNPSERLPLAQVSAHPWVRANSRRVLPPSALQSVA

Regarding `O=C1NCc2cccc(c2)-c2ccnc(n2)Nc2cccc(c2)CN[C@H]1Cc1ccccc1` [Compound 185], the IC50 in experiment [1] was more than 10 µM; in experiment [2] it was more than 10 µM; in experiment [3], more than 10 µM; in experiment [4], 6.76 µM.

Regarding `O=C1NCc2cccc(c2)-c2ccnc(n2)Nc2cc(ccc2Cl)CN2CCC[C@@H]12` [Compound 51], the IC50 in experiment [1], in experiment [2], in experiment [3] and in experiment [4] was more than 10 µM throughout.

As to `O=C1NCc2cccc(c2)-c2ccnc(n2)Nc2cccc(c2)CN2CCC1CC2` [Compound 124], the IC50 is more than 10 µM in experiment [1], more than 10 µM in experiment [2], more than 10 µM in experiment [3] and 6.03 µM in experiment [4].

Turning to `COc1ccc2cc1CN(C)CCCNC(=O)[C@@H]1CCCN1Cc1cc(NCCc3ccccc3)cc(c1)Nc1nccc-2n1` [Compound 167], the IC50 is more than 10 µM in experiment [1], more than 10 µM in experiment [2], more than 10 µM in experiment [3] and 3.72 µM in experiment [4].

As to `COc1cc2cc(c1)Nc1nccc(n1)-c1ccc(cc1)CN(C)CCCNC(=O)C1CCN(CC1)C2` [Compound 66], the IC50 was more than 10 µM in experiment [1], more than 3.02 µM in experiment [2], more than 10 µM in experiment [3] and 2.88 µM in experiment [4].

As for `COc1ccc2cc1CN(C)CCNC(=O)[C@@H]1CCCN1Cc1cc(cc(NC(C)C)c1)Nc1nccc-2n1` [Compound 165], the IC50 in experiment [1] is more than 10 µM; in experiment [2] it was more than 10 µM; in experiment [3] it was more than 10 µM; in experiment [4], 6.17 µM.

As to `C[C@@H]1NCc2cc(ccc2N2CCOCC2)Nc2nccc(n2)-c2cccc(c2)CNC1=O` [Compound 182], the IC50 in experiment [1], in experiment [2], in experiment [3] and in experiment [4] was more than 10 µM each time.

On to `O=C1NCc2ccc(cc2)-c2ccnc(n2)Nc2ccc(N3CCOCC3)c(c2)CN2CCC1CC2` [Compound 12], for which the IC50 in experiment [1] was 2.29 µM; in experiment [2] it was more than 10 µM; in experiment [3], more than 10 µM; in experiment [4] it was 0.955 µM.

Regarding `CC(C)Nc1cc2cc(c1)Nc1nccc(n1)-c1ccc(cc1)CN(C)CCCNC(=O)C1CCN(CC1)C2` [Compound 65], the IC50 in experiment [1] was more than 10 µM; in experiment [2] it was more than 10 µM; in experiment [3] it was more than 10 µM; in experiment [4], 7.24 µM.

Regarding `C[C@@H]1NCCc2cccc(c2)-c2ccnc(n2)Nc2ccc(N3CCOCC3)c(c2)CNC1=O` [Compound 100], the IC50 in experiment [1] was more than 10 µM; in experiment [2], more than 10 µM; in experiment [3], more than 10 µM; in experiment [4], 0.603 µM.

In the case of `COc1ccc2cc1CN(C)CCNC(=O)[C@H](CO)NCc1cc(Br)cc(c1)Nc1nccc-2n1` [Compound 119], the IC50 was more than 10 µM in experiment [1], more than 10 µM in experiment [2], more than 10 µM in experiment [3] and 8.71 µM in experiment [4].

Take `CN1CCNC(=O)[C@H](CO)NCc2cccc(c2)Nc2nccc(n2)-c2ccc(cc2)C1` [Compound 114]: the IC50 was 7.08 µM in experiment [1], approximately 3.02 µM in experiment [2], more than 10 µM in experiment [3] and more than 10 µM in experiment [4].

As to `O=C1NCc2cccc(c2)-c2ccnc(n2)Nc2cc(ccc2Cl)CN[C@H]1CO` [Compound 188], the IC50 in experiment [1], in experiment [2], in experiment [3] and in experiment [4] was more than 10 µM in each case.

Take `O=C1NCc2cccc(c2)-c2ccnc(n2)Nc2ccc(cc2)CN[C@H]1Cc1ccccc1` [Compound 192]: the IC50 in experiment [1], in experiment [2], in experiment [3] and in experiment [4] was more than 10 µM each time.

Turning to `CN1CCC(NC(=O)c2ccc3cc2CN2CCC[C@H]2C(=O)NCc2cccc(c2)-c2ccnc(n2)N3)CC1` [Compound 47], the IC50 was more than 10 µM in experiment [1], more than 10 µM in experiment [2], more than 1 µM in experiment [3] and 7.08 µM in experiment [4].

In the case of `O=C1NCc2cc(ccc2N2CCOCC2)Nc2nccc(n2)-c2cccc(c2)CCN2CCC[C@@H]12` [Compound 43], the IC50 in experiment [1], in experiment [2], in experiment [3] and in experiment [4] was more than 10 µM throughout.

Regarding `O=C1NCc2cccc(c2)-c2ccnc(n2)Nc2cc(ccc2Cl)CN2C[C@H](O)C[C@@H]12` [Compound 52], the IC50 in experiment [1], in experiment [2], in experiment [3] and in experiment [4] was more than 10 µM in each case.

In the case of `O=C1NCc2cccc(c2)-c2ccnc(n2)Nc2cccc(c2)CN2C[C@@H](O)C[C@@H]12` [Compound 45], the IC50 is more than 10 µM in experiment [1], more than 10 µM in experiment [2], more than 10 µM in experiment [3] and 0.912 µM in experiment [4].

On to `O=C1NCc2cccc(c2)-c2ccnc(n2)Nc2cccc(c2)CN[C@H]1CO` [Compound 187], for which the IC50 in experiment [1], in experiment [2], in experiment [3] and in experiment [4] was more than 10 µM throughout.

For `COc1cc2cc(c1)Nc1nccc(n1)-c1ccc(OC)c(c1)CN(C)CCNC(=O)[C@H](CO)NC2` [Compound 107], the IC50 was 2.04 µM in experiment [1], more than 10 µM in experiment [2], more than 10 µM in experiment [3] and 8.91 µM in experiment [4].

Regarding `COc1cc2cc(c1)Nc1nccc(n1)-c1ccc(OC)c(c1)CN(C)CCNC(=O)CN1CCN(CC1)C2` [Compound 127], the IC50 in experiment [1] was 2 µM; in experiment [2], more than 10 µM; in experiment [3], more than 10 µM; in experiment [4], more than 10 µM.

In the case of `COc1ccc2cc1CN(C)CCNC(=O)[C@@H]1CCCN1Cc1cc(cc(N3CCOCC3)c1)Nc1nccc-2n1` [Compound 152], the IC50 in experiment [1] is 7.94 µM; in experiment [2], more than 10 µM; in experiment [3], more than 10 µM; in experiment [4], more than 10 µM.

As to `COc1cc2cc(c1)Nc1nccc(n1)-c1ccc(OC)c(c1)CN(C)CCNC(=O)C1CCN(CC1)C2` [Compound 67], the IC50 is 5.13 µM in experiment [1], more than 3.02 µM in experiment [2], more than 10 µM in experiment [3] and more than 10 µM in experiment [4].

Turning to `CN1CCNC(=O)CN2CCN(CC2)Cc2cccc(c2)Nc2nccc(n2)-c2ccc(cc2)C1` [Compound 134], the IC50 is more than 10 µM in experiment [1], 2.88 µM in experiment [2], more than 10 µM in experiment [3] and more than 10 µM in experiment [4].

Turning to `O=C1NCc2cccc(c2)-c2ccnc(n2)Nc2ccccc2CN2CCC[C@@H]12` [Compound 57], the IC50 in experiment [1] was more than 10 µM; in experiment [2], more than 10 µM; in experiment [3], more than 1 µM; in experiment [4], more than 10 µM.

In the case of `CC(C)(C)O[C@@H]1C[C@H]2C(=O)NCc3cccc(c3)-c3ccnc(n3)Nc3ccccc3CN2C1` [Compound 58], the IC50 in experiment [1], in experiment [2], in experiment [3] and in experiment [4] was more than 10 µM each time.

As to `COc1cc2cc(c1)Nc1nccc(n1)-c1ccc(OC)c(c1)CN(C)CCCNC(=O)C1CCN(CC1)C2` [Compound 73], the IC50 is more than 10 µM in experiment [1], more than 10 µM in experiment [2], more than 10 µM in experiment [3] and 5.13 µM in experiment [4].

For `COc1cc2cc(c1)Nc1nccc(n1)-c1ccc(cc1)CN(C)CCCNC(=O)[C@@H]1CCCN1C2` [Compound 156], the IC50 in experiment [1] was more than 10 µM; in experiment [2] it was more than 3.02 µM; in experiment [3] it was 8.51 µM; in experiment [4], more than 10 µM.

Turning to `O=C1NCc2cccc(c2)-c2ccnc(n2)Nc2ccc(C(=O)N3CCOCC3)c(c2)CN2CCC[C@@H]12` [Compound 26], the IC50 in experiment [1], in experiment [2], in experiment [3] and in experiment [4] was more than 10 µM throughout.

For `O=C1NCc2cccc(c2)-c2ccnc(n2)Nc2cc(cc(C(=O)N3CCOCC3)c2)CN2CCC[C@@H]12` [Compound 32], the IC50 in experiment [1], in experiment [2], in experiment [3] and in experiment [4] was more than 10 µM throughout.

In the case of `COc1ccc2cc1CN[C@@H](CO)C(=O)N(C)CCCN(C)c1ccc(cn1)-c1ccnc(n1)N2` [Compound 11], the IC50 in experiment [1], in experiment [2], in experiment [3] and in experiment [4] was more than 10 µM throughout.

For `COc1ccc2cc1CN(C)CCCNC(=O)[C@H](CO)NCc1cccc(c1)Nc1nccc-2n1` [Compound 118], the IC50 was 6.61 µM in experiment [1], more than 3.02 µM in experiment [2], more than 10 µM in experiment [3] and more than 10 µM in experiment [4].

For `COc1cc2cc(c1)Nc1nccc(n1)-c1ccc(cc1)CN(C)CCNC(=O)[C@H](CO)NC2` [Compound 109], the IC50 is 7.41 µM in experiment [1], more than 10 µM in experiment [2], more than 10 µM in experiment [3] and 5.62 µM in experiment [4].
